Assay results from patent publication US5036008A, “Antitumor antibiotic BU-3285T” (Bristol-Myers Company, priority 1990, dated 1991).
Values after ≈ are worked out from the molar mass of the structure shown. “Also recorded” adds a separate entry of the source.

What was measured:
[1] = test system: Mucor spinosus IF05317; assay: In vitro antifungal activity, serial agar dilution; conditions: IF05317, 40 h, pH 7
Description: (§1) In vitro antifungal activity was determined against various fungi by the serial agar dilution method. Sabouraud dextrose agar (pH 7.0) was used for the experiment. The inoculum size was adjusted to 10^6 CFU/ml. After incubation at 28° C. for 40 hours, the minimum inhibitory concentration (MIC) was examined.

[2] = test system: A549 (human lung carcinoma) cells; assay: In vitro cytotoxicity (Table 14); type: cell-based; conditions: A549, 72 h
Description: (§2) B16-F10 (murine melanoma), HCT-116 (human colon carcinoma), A549 (human lung carcinoma) and A549/VP29 (an etoposide-resistant subline of A549) were grown in Eagle's MEM (Nissui) supplemented with FCS (fetal calf serum, 10%) and non-essential amino acids (B16-F10), or in McCoy's 5A medium (Gibco) with FCS (10%), essential and non-essential amino acids, vitamins and antibiotics (HCT-116 and both of A549) at 37° C. under a humidified atmosphere in a 5% CO2 incubator. Exponentially growing B16-F10, HCT-116 and A549 cells were harvested, counted and suspended in the culture medium at 1.5×10^4, 3×10^4 and 3×10^4 cells/ml, respectively. After planting 180 μl of cell suspension into wells of a 96-well microtiter plate on day 0, the test materials (20 μl) were added on day 1 and the plates were incubated for 72 hours. The cytotoxic activity was colorimetrically determined at 540 nm after staining viable cells with neutral red solution.

[3] = test system: murine and human tumor cell lines; assay: In vitro cytotoxicity, overall statement
Description: After planting 180 μl of cell suspension into wells of a 96-well microtiter plate on day 0, the test materials (20 μl) were added on day 1 and the plates were incubated for 72 hours. The cytotoxic activity was colorimetrically determined at 540 nm after staining viable cells with neutral red solution.

[4] = Solubility; type: physicochemical
[5] = test system: C. albicans A9540; assay: In vitro antifungal activity, serial agar dilution; conditions: Candida albicans, A9540, 40 h, pH 7
Description: as §1

[6] = test system: Blastomyces dermatidis D40; assay: In vitro antifungal activity, serial agar dilution; conditions: D40, 40 h, pH 7
Description: as §1

[7] = test system: fungi; assay: In vitro antifungal activity, overall statement; conditions: various fungi
Description: as §1

[8] = test system: A. flavus FA21436; assay: In vitro antifungal activity, serial agar dilution; conditions: Aspergillus flavus, FA21436, 40 h, pH 7
Description: as §1

[9] = test system: HCT-116 (human colon carcinoma) cells; assay: In vitro cytotoxicity (Table 14); type: cell-based; conditions: HCT-116, 72 h
Description: as §2

[10] = test system: Piricularia oryzae D91; assay: microbe, parasite or virus in culture; type: cell-based; conditions: 40 h, pH 7
[11] = test system: P388 leukemia; assay: In vivo antitumor activity against P388 leukemia (Table 8); conditions: for Body wt. change on day 4 / MST (median survival time) / T/C: Q1D × 3
[12] = test system: Aspergillus fumigatus IAM2530; assay: In vitro antifungal activity, serial agar dilution; conditions: IAM2530, 40 h, pH 7
Description: as §1

[13] = test system: Trichophyton mentagrophytes D155; assay: In vitro antifungal activity, serial agar dilution; conditions: D155, 40 h, pH 7
Description: as §1

[14] = test system: Sporothrix schenckii IF08158; assay: microbe, parasite or virus in culture; conditions: IF08158, 40 h, pH 7
Description: as §1

With `CCCCC/C=C/C=C\C=C/C(O)C(C)C(C/C=C/C1OC(=O)C=CC1O)OS(=O)(=O)O` (stereo not drawn) [BU-3285T] the MIC [1] was 25 µg/mL (≈ 53.1 µM), the IC50 [2] was 4.1 µg/mL (≈ 8.71 µM) and the cytotoxicity in vitro ([3]; murine and human tumor cell lines) was “exhibits in vitro antifungal activity and cytotoxicity; also recorded: quite active”. For the same compound, the “IC50 values against the murine and human tumor cell lines (range)” value ([3]; range over cell lines of Table 14) was 1.9 to 38 µg/mL, the solubility in acetone ([4]; acetone) was “slightly soluble” and the solubility in chloroform ([4]; chloroform) was “insoluble”. For the same compound, the “solubility in dimethyl sulfoxide” value ([4]; dimethyl sulfoxide) was “soluble”, the solubility in ethanol ([4]; ethanol) was “soluble” and the “solubility in ethyl acetate” value ([4]; ethyl acetate) was “slightly soluble”. The solubility in methanol ([4]; methanol) was “soluble”, the solubility in n-hexane ([4]; n-hexane) was “insoluble” and the solubility in water ([4]; water) was “soluble”. For the same compound, the MIC [5] was 25 µg/mL (≈ 53.1 µM), the MIC [6] was 12.5 µg/mL (≈ 26.6 µM) and the “antifungal activity in vitro” value [7] was “exhibits in vitro antifungal activity”. For the same compound, the “antifungal activity in vitro” value ([7]; listed as BU-3285 T) was “relatively good and broad antifungal profile”, the MIC [8] was 50 µg/mL (≈ 106 µM) and the IC50 [9] was 1.9 µg/mL (≈ 4.04 µM). The MIC [10] was 50 µg/mL (≈ 106 µM), the “Body wt. change on day 4” value ([11]; 0.1 mg/kg/day ip) was “+1.5 g” and the “MST (median survival time)” value ([11]; 0.1 mg/kg/day ip) was 12.0 days. The T/C ([11]; 0.1 mg/kg/day ip, significant if T/C ≥ 125%) was 120%, the “Body wt. change on day 4” value ([11]; 0.3 mg/kg/day ip) was “+1.0 g” and the “MST (median survival time)” value ([11]; 0.3 mg/kg/day ip) was 13.0 days. For the same compound, the T/C ([11]; 0.3 mg/kg/day ip, *2 significant, T/C ≥ 125%) was 130%, the “Body wt. change on day 4” value ([11]; 1 mg/kg/day ip) was “+1.0 g” and the “MST (median survival time)” value ([11]; 1 mg/kg/day ip) was 14.0 days. For the same compound, the T/C ([11]; 1 mg/kg/day ip, *2 significant, T/C ≥ 125%) was 140%, the “Body wt. change on day 4” value ([11]; 3 mg/kg/day ip) was “+1.5 g” and the “MST (median survival time)” value ([11]; 3 mg/kg/day ip) was 15.0 days. The T/C ([11]; 3 mg/kg/day ip, *2 significant, T/C ≥ 125%) was 150%, the “Body wt. change on day 4” value ([11]; 10 mg/kg/day ip) was 0.0 g and the “MST (median survival time)” value ([11]; 10 mg/kg/day ip) was 16.0 days. The T/C ([11]; 10 mg/kg/day ip, *2 significant, T/C ≥ 125%) was 160%, the “activity compared with mitomycin C” value ([11]; P388, in terms of minimum effective dose) was “comparable” and the “in vivo antitumor activity” value ([11]; P388 leukemia in mice) was “potent in vivo inhibitory activity; also recorded: good antitumor activity”. For the same compound, the MIC [12] was 25 µg/mL (≈ 53.1 µM), the MIC [13] was 25 µg/mL (≈ 53.1 µM) and the MIC [14] was 100 µg/mL (≈ 213 µM).
